According to PubChem BioAssay AID248 (DTP/NCI, 2004):
“And” between values parts separate entries of the source, which are not always exact repeats. Equal entries are not always repeated. Toxic doses and inconclusive results are not listed. Cut-off read from the data, not from the text of the source: active = T/C of 150% or more; inactive = T/C below 125%.

Test system: L1210 leukemia ip in BDF1 mice, survival T/C
Experiment: NCI In Vivo Anticancer Drug Screen. Data for tumor model L1210 Leukemia (intraperitoneal) in B6D2F1 (BDF1) mice
Conditions: endpoint: mean survival time, higher = longer survival
Procedure, shortened: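 Antitumor effect is assessed in tumor-bearing animals. Survival in the compound arm is compared with a vehicle-dosed control arm and expressed as their quotient.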

[1] = dose: 100.0 mg/kg/injection, schedule: Q04DX003 (ip), vehicle: saline sonified
[2] = dose: 200.0 mg/kg/injection, schedule: Q04DX003 (ip), vehicle: saline sonified
[3] = dose: 400.0 mg/kg/injection, schedule: Q04DX003 (ip), vehicle: saline sonified
[4] = dose: 100.0 mg/kg/injection, schedule: Q01DX001 (ip), vehicle: Klucel (hydroxypropylcellulose) (HPC)
[5] = dose: 200.0 mg/kg/injection, schedule: Q01DX001 (ip), vehicle: Klucel (hydroxypropylcellulose) (HPC)
[6] = dose: 50.0 mg/kg/injection, schedule: Q01DX009 (ip), vehicle: saline with Tween-80
[7] = dose: 100.0 mg/kg/injection, schedule: Q01DX009 (ip), vehicle: saline with Tween-80
[8] = dose: 100.0 mg/kg/injection, schedule: Q04DX003 (ip), vehicle: Klucel (hydroxypropylcellulose) (HPC)
[9] = dose: 200.0 mg/kg/injection, schedule: Q04DX003 (ip), vehicle: Klucel (hydroxypropylcellulose) (HPC)
[10] = dose: 400.0 mg/kg/injection, schedule: Q04DX003 (ip), vehicle: Klucel (hydroxypropylcellulose) (HPC)
[11] = dose: 100.0 mg/kg/injection, schedule: Q01DX001 (ip), vehicle: other
[12] = dose: 400.0 mg/kg/injection, schedule: Q01DX001 (ip), vehicle: other
[13] = dose: 50.0 mg/kg/injection, schedule: Q01DX001 (ip), vehicle: Klucel (hydroxypropylcellulose) (HPC)
[14] = dose: 100.0 mg/kg/injection, schedule: Q01DX009 (ip), vehicle: Klucel (hydroxypropylcellulose) (HPC)
[15] = dose: 200.0 mg/kg/injection, schedule: Q01DX009 (ip), vehicle: Klucel (hydroxypropylcellulose) (HPC)
[16] = dose: 400.0 mg/kg/injection, schedule: Q01DX009 (ip), vehicle: Klucel (hydroxypropylcellulose) (HPC)

Measured: T/C

O=C1NCCCN1
inactive: [1] 104 % of control | [2] 102 % of control | [3] 101 % of control

NC(N)=NCCCS
inactive: dose: 75.0 mg/kg/injection, schedule: Q01DX001 (ip), vehicle: saline 104 % of control | dose: 150.0 mg/kg/injection, schedule: Q01DX001 (ip), vehicle: saline 104 % of control | dose: 300.0 mg/kg/injection, schedule: Q01DX001 (ip), vehicle: saline 104 % of control

CC(/C=C/c1ccc2c(c1)OCO2)[N+](=O)[O-] (stereo not drawn)
inactive: [4] 103 % of control | [5] 103 % of control | dose: 400.0 mg/kg/injection, schedule: Q01DX001 (ip), vehicle: Klucel (hydroxypropylcellulose) (HPC) 106 % of control

CC(=O)Nc1ccc(C(C)(C)CC(=O)O)cc1[N+](=O)[O-]
inactive: [6] 90 % of control | [7] 87 % of control | dose: 200.0 mg/kg/injection, schedule: Q01DX009 (ip), vehicle: saline with Tween-80 87 % of control

C(CCCCc1nn[nH]n1)CCCc1nn[nH]n1
inactive: [8] 94 % of control | [9] 103 % of control | [10] 91 % of control

Cn1c(=O)c2[nH]c(C3CC=CCC3)nc2n(C)c1=O (stereo not drawn)
inactive: dose: 50.0 mg/kg/injection, schedule: Q01DX001 (ip), vehicle: other 97 % of control | [11] 95 % of control | [12] 94 % of control

CCC(=O)OC1(c2ccccc2)CCN(CCC(O)c2ccco2)CC1 (stereo not drawn)
inactive: dose: 40.0 mg/kg/injection, schedule: Q01DX009 (ip), vehicle: Klucel (hydroxypropylcellulose) (HPC) 97 % of control | dose: 80.0 mg/kg/injection, schedule: Q01DX009 (ip), vehicle: Klucel (hydroxypropylcellulose) (HPC) 98 % of control | dose: 160.0 mg/kg/injection, schedule: Q01DX009 (ip), vehicle: Klucel (hydroxypropylcellulose) (HPC) 98 % of control

COC(=O)c1c2c(nc3ccccc13)-c1ccccc1C(C)(C)C2OC (stereo not drawn)
inactive: [8] 113 % of control | [9] 102 % of control | [10] 101 % of control

O=c1c(N=Nc2ccc(Cl)cc2)c(O)n(-c2ccc(Cl)cc2)c(=S)n1-c1ccccc1
inactive: [13] 108 % of control | [4] 94 % of control | [5] 100 % of control

CCP(=O)(CC)CC
inactive: dose: 1000.0 mg/kg/injection, schedule: Q01DX Z (ip), vehicle: saline 104 % of control | dose: 2000.0 mg/kg/injection, schedule: Q01DX Z (ip), vehicle: saline 101 % of control

O=[N+]([O-])c1ccc(/C=N/c2oc(-c3ccc([N+](=O)[O-])cc3)nc2SCc2ccccc2)cc1
inactive: dose: 50.0 mg/kg/injection, schedule: Q04DX002 (ip), vehicle: Klucel (hydroxypropylcellulose) (HPC) 100 % of control | dose: 100.0 mg/kg/injection, schedule: Q04DX002 (ip), vehicle: Klucel (hydroxypropylcellulose) (HPC) 100 % of control | dose: 200.0 mg/kg/injection, schedule: Q04DX002 (ip), vehicle: Klucel (hydroxypropylcellulose) (HPC) 116 % of control

O=C(c1cc(=O)[nH]c(=O)[nH]1)N(CCO)CCO
inactive: dose: 100.0 mg/kg/injection, schedule: Q01DX Z (ip), vehicle: saline 106 % of control | dose: 200.0 mg/kg/injection, schedule: Q01DX Z (ip), vehicle: saline 93 % of control

COc1c(Cl)cc([N+](=O)[O-])cc1Cl
inactive: dose: 25.0 mg/kg/injection, schedule: Q01DX009 (ip), vehicle: gum acacia 100 % of control | dose: 50.0 mg/kg/injection, schedule: Q01DX009 (ip), vehicle: gum acacia 106 % of control

CC(=O)OC(C)c1ccccc1 (stereo not drawn)
inactive: [14] 112 % of control | [15] 106 % of control | [16] 101 % of control

CC(C)C1=CC23CCC4C(C)(C(=O)O)CCCC4(C)C2CC1C1C(=O)N(CCCN(C)C)C(=O)C13 (stereo not drawn)
inactive: dose: 75.0 mg/kg/injection, schedule: Q01DX001 (ip), vehicle: other 96 % of control | dose: 150.0 mg/kg/injection, schedule: Q01DX001 (ip), vehicle: other 94 % of control

O=[N+]([O-])c1ccc(N=N/C(Cc2ccccc2)=N\Nc2ccccc2)cc1
inactive: dose: 50.0 mg/kg/injection, schedule: Q01DX009 (ip), vehicle: Klucel (hydroxypropylcellulose) (HPC) 90 % of control | [14] 95 % of control | [8] 87 % of control | [15] 92 % of control | [9] 100 % of control | [16] 90 % of control | [10] 101 % of control

Cc1ccc2nc(-c3ccc(N)cc3)sc2c1S(=O)(=O)O
inactive: dose: 100.0 mg/kg/injection, schedule: Q01DX009 (ip), vehicle: saline 100 % of control | dose: 100.0 mg/kg/injection, schedule: Q04DX002 (ip), vehicle: saline 92 % of control | dose: 200.0 mg/kg/injection, schedule: Q01DX009 (ip), vehicle: saline 96 % of control | dose: 200.0 mg/kg/injection, schedule: Q04DX002 (ip), vehicle: saline 105 % of control | dose: 400.0 mg/kg/injection, schedule: Q01DX009 (ip), vehicle: saline 110 % of control | dose: 400.0 mg/kg/injection, schedule: Q04DX002 (ip), vehicle: saline 99 % of control

Cc1nc(N)[nH]c(=O)c1CCCNC(=O)c1cccc([N+](=O)[O-])c1
inactive: [13] 108 % of control | [4] 114 % of control

CCS(=O)(=O)c1ccc(NC(=O)OC(C)(c2ccccc2)C2CCCCC2)cc1 (stereo not drawn)
inactive: dose: 100.0 mg/kg/injection, schedule: Q01DX001 (ip), vehicle: carboxymethylcellulose (CMC) 96 % of control | dose: 200.0 mg/kg/injection, schedule: Q01DX001 (ip), vehicle: carboxymethylcellulose (CMC) 91 % of control | dose: 400.0 mg/kg/injection, schedule: Q01DX001 (ip), vehicle: carboxymethylcellulose (CMC) 100 % of control

CN(c1ccccc1)[N+](=O)[O-]
inactive: [11] 94 % of control | dose: 200.0 mg/kg/injection, schedule: Q01DX001 (ip), vehicle: other 97 % of control | [12] 97 % of control

O=C(c1cccnc1)C1Cc2ccccc2C1=O (stereo not drawn)
inactive: [1] 100 % of control | [2] 96 % of control | [3] 91 % of control

N#Cc1cc(C(N)=O)c(N)nc1SCc1ccccc1
inactive: [13] 94 % of control | [4] 86 % of control | [5] 91 % of control

Cc1nc2ccc(N=Cc3ccc(N(CCCl)CCCl)cc3C)cc2[nH]1
inactive: [8] 104 % of control | [9] 102 % of control | [10] 101 % of control

O=C1C=CC(=O)C(SCCSC2=CC(=O)C(SCCSC3=CC(=O)C=CC3=O)=CC2=O)=C1
inactive: dose: 100.0 mg/kg/injection, schedule: Q01DX001 (ip), vehicle: saline 98 % of control | dose: 200.0 mg/kg/injection, schedule: Q01DX001 (ip), vehicle: saline 101 % of control | dose: 400.0 mg/kg/injection, schedule: Q01DX001 (ip), vehicle: saline 95 % of control

CCC1C(=O)CC(C(=O)O)C1C(=O)O (stereo not drawn)
inactive: dose: 100.0 mg/kg/injection, schedule: Q04DX002 (ip), vehicle: saline with Tween-80 100 % of control | dose: 200.0 mg/kg/injection, schedule: Q04DX002 (ip), vehicle: saline with Tween-80 96 % of control

O=C1c2ccccc2C(=O)N1OCCCCCCON1C(=O)c2ccccc2C1=O
inactive: dose: 100.0 mg/kg/injection, schedule: Q04DX003 (ip), vehicle: saline 92 % of control | dose: 200.0 mg/kg/injection, schedule: Q04DX003 (ip), vehicle: saline 94 % of control | dose: 400.0 mg/kg/injection, schedule: Q04DX003 (ip), vehicle: saline 97 % of control

COC(=O)CCCN1C(=O)c2ccccc2C1=O
inactive: dose: 100.0 mg/kg/injection, schedule: Q04DX002 (ip), vehicle: carboxymethylcellulose (CMC) 102 % of control and 87 % of control | dose: 100.0 mg/kg/injection, schedule: Q04DX003 (ip), vehicle: carboxymethylcellulose (CMC) 94 % of control | dose: 200.0 mg/kg/injection, schedule: Q04DX002 (ip), vehicle: carboxymethylcellulose (CMC) 97 % of control and 91 % of control | dose: 200.0 mg/kg/injection, schedule: Q04DX003 (ip), vehicle: carboxymethylcellulose (CMC) 92 % of control | dose: 400.0 mg/kg/injection, schedule: Q04DX002 (ip), vehicle: carboxymethylcellulose (CMC) 93 % of control and 90 % of control | dose: 400.0 mg/kg/injection, schedule: Q04DX003 (ip), vehicle: carboxymethylcellulose (CMC) 99 % of control

Cc1oc2ccc(NS(=O)(=O)c3ccccc3)cc2c1C(=O)O
inactive: dose: 25.0 mg/kg/injection, schedule: Q01DX009 (ip), vehicle: saline with Tween-80 101 % of control | [6] 107 % of control | [7] 101 % of control
